In general, Ki refers to the dissociation constant of the complex between target and ligand, obtained from inhibition or displacement. Usually solubility stands for the concentration that dissolves in the medium under given conditions. Read a high solubility as much dissolved substance.

Data set [1] addresses Urokinase-type plasminogen activator (Homo sapiens, UniProt P00749). Briefly: Inhibition of Human kidney cell urokinase. The format is cell-based.
Data set [2] is described as follows: Compound was evaluated for its solubility in water. The format is ADME.

Molecules are shown by their SMILES. Values after ≈ are worked out from the molar mass of the structure shown.

In data set [1], `COc1sc(C(=N)N)cc1-c1nc(-c2ccccc2)cs1` returned a Ki of 531 nM.
As for `CCc1sc(C(=N)N)cc1-c1nc(-c2ccccc2)cs1`, in data set [2], the concentration in solution (solubility) was 2700 µM (≈ 846 µg/mL). The same compound showed a Ki in data set [1] of 138 nM.
`COc1ccc(-c2csc(-c3cc(C(=N)N)sc3SC)n2)cc1OC`: the Ki in data set [1] stood at 58 nM.
Still for that read-out and setting: under `CSc1sc(C(=N)N)cc1-c1nc(-c2ccc(Cl)cc2)cs1` stands 102 nM.
With `CSc1sc(C(=N)N)cc1-c1nc(-c2ccccc2)cs1`, the solubility in data set [2] was determined as 300 µM (≈ 99.4 µg/mL).
`CS(=O)(=O)c1sc(C(=N)N)cc1-c1nc(-c2ccc(Cl)cc2)cs1`: in data set [1], the Ki is 2500 nM.
With `Cc1sc(C(=N)N)cc1-c1nc(-c2ccccc2)cs1`, the solubility in data set [2] stood at 9000 µM (≈ 2690 µg/mL).
For `N=C(N)c1cc(-c2nc(-c3ccc(Cl)cc3)cs2)c(SCc2ccccc2)s1`, the Ki in data set [1] was 2500 nM.

These data come from ChEMBL document CHEMBL1135050, “Design and synthesis of 4,5-disubstituted-thiophene-2-amidines as potent urokinase inhibitors” (Bioorg Med Chem Lett, 2002).
